# Results published in patent US20140315972A1, “RS)-2-(2-oxo-4-phenylpyrrolidin-1-yl)acetamide compound having modulatory activity with a commensurate effect, pharmaceutical substance (variants) and its application, composition (variants) thereof” (priority 2011, published 2014).
# Marks after values point to notes of the source that are not given here.
# Tested on: mice
# Assay: Spontaneous tumors in mice at autopsy
# Type: in vivo
# Conditions: for spontaneous tumors, Number, in %: mice, untreated control = 100
# Method: The maximum life span (MLS) of mice according to our long-term statistical observations is 2.7-3, 2 years, i.e. in average 2.95 years or 1077 days. For this study we selected mice (10 individuals per group), males with dominant behavior in mixed groups, that safely survived to 985 days without signs of pronounced senility and with satisfactory orientation-exploratory behavior, determined by the “open field test” method. Phenotropil in doses of 25, 50 and 100 mg/kg was administered orally with 5.0% glucose solution. Glucose solution was used solely to improve the solubility of the drug. One control group received the glucose solution and the second one—distilled water. The third control group was not treated.
# The greatest effect (Table 18) was obtained after treatment with Phenotropil in doses of 25 mg/kg (23.3%) and 100 mg/kg (24.0%). […] With a sample of 30 individuals in total in the three groups, we can talk about a high reliability of the findings.
smiles,measurement,setting,value
"NC(=O)CN1CC(c2ccccc2)CC1=O (racemic) [Compound 1, (RS)-2-(2-oxo-4-phenylpyrrolidine-1-yl)acetamide]",incidence and severity of spontaneous tumors lower by,100 mg/kg,2.37 times
same,"spontaneous tumors, Number, in %",25 mg/kg + 5.0% glucose solution,57.0* %
same,"spontaneous tumors, Number, in %",50 mg/kg + 5.0% glucose solution,74.5* %
same,"spontaneous tumors, Number, in %",100 mg + 5.0% glucose solution,42.2* %
